From patent US20230381237A1, “CHIMERIC ANTIGEN RECEPTOR (CAR) T-CELL ADJUVANT THERAPIES” (priority 2022, published 2023)
“Also recorded” adds a separate entry of the source.

What was measured:
[1] = system: PBMCs activated through TLR-3; assay: TNFα production in Poly r(I:C)-activated PBMCs (sandwich ELISA); details: 0.3 nM to 750 nM
influenza (H1N1) = assay: In vivo lethal influenza H1N1 studies, cytokine levels; set-up: species or system mice
[2] = system: CD19 CAR T-cells co-cultured with CD19+Raji lymphoma target cells; assay: CD19 CAR T-cell / Raji co-culture, pro-inflammatory cytokine levels; assay type: cell-based, human
CD19+Raji tumor cells = assay: CD19 CAR T-cell killing of Raji target cells (flow cytometry, 7-AAD); assay type: cell-based, human; details: in vitro; Effector:Target 10:1, 5:1, 1:1; all concentrations; monosodium salt
Raji-luc tumor cells = assay: CAR T-cell efficacy in NSG tumor bearing mice; assay type: in vivo
Description: Human T-cells expressing CD19-CD28-CD3Z CAR construct was used in this experiment.
6-7 week old NSG™ (NOD SCID gamma) mice were engrafted with 1×10^6 luciferase (luc) expressing Raji tumor cells (herein referred to as “Raji-luc” tumor cells) each on Day 1 to allow for tumor growth over a 7-day period prior to the commencement of the treatment. CAR T-cell infusion was performed intravenously via lateral tail vein on (5×10^6 CD19 CAR T-cells generated from healthy donors). NSG mice are severely immunodeficient, which facilitates ready tumor engraftment and subsequent clearance due to CAR T-cells can be measured.
Tumor growth after engraftment and subsequent clearance were monitored once weekly (starting on Day 7) using IVIS imaging to detect luciferase signal in living mice. […] CTO1681 doses were selected based on the pharmacokinetic profile of the drug in mice. Control groups included mice receiving Raji-luc tumor cells without CAR T-cell treatment, mice receiving Raji-luc tumor cells and a CAR T-cell infusion, and mice receiving Raji-luc tumor cells with vehicle treatments. Mice were monitored for body temperature and health evaluations (weight, movement, posture, fur condition, etc.) throughout the entire study.

[3] = Pharmacokinetics in African Green Monkeys, TID oral gavage; assay type: in vivo
Description: (§1) Individual Animal Metrics—Nine African green monkeys (approximately 16 years old, wild-caught) were used in this PK study. Per requirements of the CDC, all animals were quarantined at a CDC facility for 30 days followed by a 90-day quarantine/acclimation period at TNPRC prior to study initiation. Animals were dosed three times daily (TID) by oral gavage in three separate rounds of the study (ascending dose concentrations). Individual animal weights were tracked throughout the entirety of the study. On average, weights decreased 5.5% across all cohorts, with no individual animal losing more than 8.7% of its initial body weight over the course of the study. No difference in mean weight change is observed between male and female monkeys. […] Ultimately, the animals handled the schedule well, all remaining in good health with a weight loss of no more than what was expected by the veterinary staff with the schedule intensity.
Individual animal profiles were evaluated following each dose on a single day of dosing. Single day TID doses were administered using the same animals following a minimum of 7 days wash out between increasing dose level rounds, where Round 1 was TID 0.008 mg/kg/day (0.00267 mg/kg/dose), Round 2 was TID 0.04 mg/kg/day (0.0133 mg/kg/dose), and Round 3 was TID 0.2 mg/kg/day (0.0667 mg/kg/dose). Wash out (negative) plasma levels of CTO1681 between dose rounds were confirmed. […] Samples were collected at the following target timepoints relative to the first TID dose of the day: 0.25, 0.5, 1, 2, 4, and 8 hours (prior to second daily dose), 8.25, 8.5, 9, 10, 12, and 16 hours (prior to third daily dose), 16.25, 16.5, 17, 18, 20, 24, 28 and 40 hours after TID test item administration by oral gavage dosing, with the three daily doses administered at 0, 8 and 16 h in 9 animals, staggered for n=3 collection after administration of each daily dose. […]

[4] = Body weight and tolerability in African green monkey PK study; assay type: in vivo, African green monkeys
Description: as §1

[5] = Single dose PK study in BALB/C mice; assay type: in vivo, murine (BALB/C)
[6] = BID dose PK study in NSG mice (CAS-2201); assay type: in vivo, murine (NSG)
[7] = system: circulating cytokines (TNFα); assay: Serum cytokine measurements after CTO1681 treatment in African Green Monkeys; assay type: in vivo; details: highest dose of CTO1681 compared to the other two cohorts
Description: Longitudinal serum samples were taken through the course of the observation period. At the end of all three cohorts serum samples were utilized to determine circulating concentrations of 12 different cytokines. Representative data is pictured below for TNFα, a key central cytokine in CRS (FIG. 6). […] Overall there appears to be a dose-dependent trend to cytokine reduction.

Food effect = assay type: in vivo; details: oral tablets
[8] = Example 3: human treatment with no delay period; assay type: in vivo; details: B-cell lymphoma, daily for 7-15 days
Description: Both groups will receive infusion of CAR T-cells. […] Clinical signs of CRS and cytokines will be monitored daily for both groups.

[9] = Example 4: treatment with predetermined delay period; assay type: in vivo, human; details: mantle cell lymphoma; start three days after CAR T-cells, eleven days
Description: Both groups will receive infusion of CAR T-cells. […] Cytokines will be monitored daily for both groups.

[10] = Example 5: treatment with monitored delay period; assay type: in vivo, human; details: acute myeloid leukemia; start upon cytokine increase, ten days
Description: Both groups will receive infusion of CAR T-cells. Cytokines will be monitored daily for both groups. […] Treatment with CTO1681 will continue daily for ten days.

influenza (H5N1) = details: in vivo; cited from earlier work
[11] = Example 2: mouse model of CAR T-cell therapy induced CRS; details: IP, BID for 7 days
[12] = Phase 1 multiple ascending, repeat-dosing study in healthy volunteers
TNF-α = details: patients with diabetes; doses within dose equivalencies of CTO1681 MAD study; cited from earlier work
[13] = CytoAgents in vivo influenza (H1N1) studies
[14] = 10:1 ratio of Effectors to Target cells, CTO1681 0.36-225 nM, 24 hours

## CC#CCC(C)[C@H](O)/C=C/[C@@H]1[C@H]2c3cccc(CCCC(=O)O)c3O[C@H]2C[C@H]1O (some centres unmarked) [Beraprost, reference compound]
[1]; PBMC, Replicate 1
  EC50: 17.1 nM
[1]; PBMC, Replicate 2
  EC50: 8.64 nM
[1]; PBMC, Replicate 3
  EC50: 17.1 nM

## CC#CC[C@H](C)[C@H](O)/C=C/[C@@H]1[C@H]2c3cccc(CCCC(=O)[O-])c3O[C@H]2C[C@H]1O.[Na+] [CTO1681, (+)-[1R, 2R, 3aS, 8bS]-2,3,3a,8b-tetrahydro-2-hydroxy-1-[(E)-(3S,4S)-3-hydroxy-4-methyl-1-octen-6-ynyl)-1Hcyclopenta[b]benzofuran-5-butanoic acid, monosodium salt]
Influenza (H1N1); [13]
  IL-2 level: reduced
  IL-6 level: reduced
  IL-10 level: reduced
Influenza (H1N1); lethal H1N1 influenza infections
  IFN-α concentrations: no significant repression
[2]; [14]
  Maximum reduction of IFN-γ: ~26%
  Maximum reduction of TL-6: ~23%
  Maximum reduction of TNF-α: approximately 50%
[2]; CAR T-cells and Raji cells at a 10:1 ratio (FIG. 1A)
  Levels of IL-6: dose-dependently lowers
[2]; CAR T-cells and Raji cells at a 10:1 ratio (FIG. 1B)
  Levels of TNF-α: dose-dependently lowers
[2]; CAR T-cells and Raji cells at a 10:1 ratio (FIG. 1C)
  Levels of IFN-γ: dose-dependently lowers
CD19+Raji tumor cells
  Effect on tumor/target cell killing of CD19-directed CAR T-cells: absence of an effect; also recorded: did not impact or interfere
Raji-luc tumor cells; 0.3, 0.2 or 0.15 mg/kg/d BID for 14 days, Day 15, monosodium salt
  Effect on CD19 CAR T-cell activity (reduction of lymphoma tumor burden): does not interfere; also recorded: did not affect
Raji-luc tumor cells; NSG mice, with CAR T-cell therapy
  Clinical morbidities, including weight loss or limb movement: did not cause any increase
[3]; round 1, 0.008 mg/kg/day TID oral
  Tmax: 1.5 h
[3]; round 2, 0.04 mg/kg/day TID oral
  Tmax: 2.0 h
[3]; round 3, 0.2 mg/kg/day TID oral
  Tmax: 2.1 h
[4]; TID oral administration, 0.008-0.2 mg/kg/day, monosodium salt
  Tolerability / toxicities or negative health effects: overall tolerable; also recorded: no toxicities or negative health effects
[4]; entire study
  Average weight decrease across all cohorts: 5.5%
  Largest individual loss of initial body weight: ≤ 8.7%
[5]
  T1/2: 1 to 2 h
[6]; calculated using first daily dose, range of 6-12 h (Rsq=0.40)
  Elimination half-life: 1.8 h
[6]; two times a day (BID) dose
  T1/2 of BID exposure: approximately 5 hours
[7]
  Cytokine levels in serum (TNFα representative): remarkable and consistent reduction
Food effect
  Food effect: positive food effect
[8]
  CRS symptoms vs control group: reduced CRS symptoms
  Undesired cytokine production vs control group: lower undesired cytokine production
[9]
  CRS symptoms vs control group: reduced CRS symptoms
  Undesired cytokine production vs control group: lower undesired cytokine production
[10]
  CRS symptoms vs control group: reduced CRS symptoms
  Undesired cytokine production vs control group: lower undesired cytokine production
Influenza (H5N1)
  IL-2 level: reduced
  IL-6 level: reduced
  IL-8 level: reduced
  IL-10 level: reduced
[11]
  Comparison with dexamethasone: superior to dexamethasone
  Survival benefits over dexamethasone: greater survival benefits
[1]; Replicate 1
  EC50: 5.7 nM
[1]; Replicate 2
  EC50: 4.14 nM
[1]; Replicate 3
  EC50: 1.95 nM
[12]
  Cytokine levels (panel of 27 cytokines): no clinically significant decreases
[12]; 15 to 60 μg/day, 7 days
  SAEs, TEAEs of special interest, TEAEs leading to study discontinuation or dose reduction: No SAEs
  Treatment-emergent AEs, mild: 62 AEs
  Treatment-emergent AEs, moderate: 4 AEs

## CC#CCC(C)C(O)C=CC1C(O)CC2Oc3c(CCCC(=O)[O-])cccc3C21.[Na+] (centres unmarked) [beraprost sodium, 2,3,3a,8b-tetrahydro-2-hydroxyl-1-(3-hydroxyl-4-methyl-1-octen-6-ynyl)-1H-cyclopenta[b]benzofuran-5-butanoic acid, sodium salt]
TNF-α
  TNF-α: significant reductions
